Data on one compound can be found in patent publication US10577382B2, “Fused heterocyclic compound” (TAKEDA PHARMACEUTICAL COMPANY LIMITED, priority 2016, dated 2020).

The subject of one assay is p21 protein. In words: p21 induction activity in HCT116 cells (western blot). Format: cell-based, human. The note with it: 300 nM, 16 hours, relative to control group. On the procedure:
(§1) 1000 μl (8,0000 cells/well) of a cell suspension of human colon adenocarcinoma cells HCT116 (purchased from ATCC) was seeded in a 12-well plate, and cultured at 37° C. for 2 days in a 5% CO2 gas incubator. The test compound solution was added to a final concentration of 300 nM, and the mixture was cultured for 16 hours. The plate was washed with PBS, a protein extract (10% glycerol, 1% sodium dodecyl sulfate, 62.5 mM Tris-HCl (pH: 7.5)) was then added to dissolve the cells, and the solution was treated at 95° C. for 5 minutes. Thereafter, the amount of protein was determined using BCA Protein Assay Kit (Thermo Fisher Scientific).
(§2) The amount of the protein in each sample was adjusted, SDS-PAGE was then performed, and the protein was transferred to a PVDF membrane using an iBlot (registered trademark) gel transfer system (Invitrogen). […] The membrane was washed in the same procedure as described above, a phosphorylated CLK2 protein, a MDM4 protein, a p53 protein and a p21 protein each labeled with an antibody were then made chemiluminescent using ImmunoStar ZETA (Wako Pure Chemical Industries, Ltd.), and luminescence was detected with LAS-3000 Image Analyzer (Fujifilm Corporation). The luminescence intensity was determined using Multi Gauge Ver. 3.1 (Fujifilm Corporation), and quantified. […]
(In western blotting, separated proteins are transferred to a membrane and probed.)

For another assay, the system named is p53 protein. The assay can be described thus: p53 induction activity in HCT116 cells (western blot). Format: cell-based, human. The following applies: 300 nM, 16 hours, relative to control group. How it is done: as §1, §2
The next assay deals with SK-MEL-28-Control cells. The assay can be described thus: Growth inhibitory action on SK-MEL-28-Control cells (CellTiter-Glo). It is filed as cell-based, human. The following applies: 125 nM, 3 days. An excerpt: Human MYC cDNA was inserted downstream of the TRE of a lentiviral vector (modified pTRIPZ: GE Healthcare) having a tetracycline responsive sequence (TRE) in the promoter region. The produced virus was infected with human malignant melanoma cells SK-MEL-28 (purchased from ATCC) to establish SK-MEL-28 cells (SK-MEL-28-MYC) inducing expression of MYC in the presence of doxycycline (Takara Bio Inc.) which is a tetracycline derivative. SK-MEL-28 cells (SK-MEL-28-Control) having an empty vector with only modified pTRIPZ were also established. 20 μL/well of 2.5 μg/mL doxycycline-containing medium was added to a 96-well plate, and 80 μl/well (1,000 cells/well) of a cell suspension was added, and cultured at 37° C. for 2 days in a 5% CO2 gas incubator. Thereafter, 100 μl of a 250 nM test compound solution was added (final concentration: 125 nM), and the mixture was further cultured for 3 days. 50 µl/well of a CellTiter-Glo™ Luminescent Cell Viability Assay reagent (Promega Corporation) was added to a 96-well plate, the amount of luminescence was measured by a luminometer, and the amount of remaining ATP was determined as a cell amount. The inhibition ratio (%) of cell growth by the test compound was calculated in accordance with the following expression. Inhibition ratio (%)=(1−(amount of luminescence of test compound)÷(amount of luminescence of control group))×100

In the next assay the test system is MDM4 protein. In words: MDM4 protein amount in HCT116 cells (western blot). Format: cell-based, human. The note with it: 300 nM, 16 hours, relative to control group. On the procedure: as §1, §2
Assay [1] concerns MDM4 transcription product (MDM4 FL / MDM4 S). In words: In vitro MDM4 alternative splicing ratio in HCT116 cells (quantitative PCR). The note with it: 300 nM, 6 hours, PSI = MDM4 FL/(MDM4 FL + MDM4 S) x 100, Control (DMSO) 75.75. Format: cell-based, human. On the procedure:
1000 μl (20,0000 cells/well) of a cell suspension of human colon adenocarcinoma cells HCT116 (purchased from ATCC) was seeded in a 12-well plate, and cultured at 37° C. for 1 day in a 5% CO2 gas incubator. The test compound solution was added to a final concentration of 300 nM, and the mixture was cultured for 6 hours. The plate was washed with PBS, the cells were then dissolved using RNeasy Mini Kit (QIAGEN), and RNA was extracted. Using cDNA after reverse transcription reaction, the number of copies of the MDM4 transcription product containing exon 6 (MDM4 FL) and the MDM4 transcription product in which exon 6 was skipped (MDM4 S) was measured by quantitative PCR. Primers with the following sequences were used for the measurement.
Primers with the following sequences were used for the measurement.
The following oligos were used for preparing a calibration curve.
A change in MDM4 alternative splicing ratio (PSI) is calculated in accordance with the following expression, and changes caused by the test compound are shown in Table 8. PSI=(number of copies of MDM4 FL÷(number of copies of MDM4 FL+number of copies of MDM4 S))×100

In assay [2] the target is T1, phosphorylated CLK2 protein (Ser98) (Homo sapiens, UniProt P49760).
T1 construct: endogenous in cells; host or cells: HCT116 (ATCC)
In words: In vitro CLK2 phosphorylation inhibitory action in HCT116 cells (western blot). It is filed as cell-based. The note with it: 300 nM, 16 hours, relative to control group. How it is done:
as §1, §2

T1 sequence (P49760 whole entry): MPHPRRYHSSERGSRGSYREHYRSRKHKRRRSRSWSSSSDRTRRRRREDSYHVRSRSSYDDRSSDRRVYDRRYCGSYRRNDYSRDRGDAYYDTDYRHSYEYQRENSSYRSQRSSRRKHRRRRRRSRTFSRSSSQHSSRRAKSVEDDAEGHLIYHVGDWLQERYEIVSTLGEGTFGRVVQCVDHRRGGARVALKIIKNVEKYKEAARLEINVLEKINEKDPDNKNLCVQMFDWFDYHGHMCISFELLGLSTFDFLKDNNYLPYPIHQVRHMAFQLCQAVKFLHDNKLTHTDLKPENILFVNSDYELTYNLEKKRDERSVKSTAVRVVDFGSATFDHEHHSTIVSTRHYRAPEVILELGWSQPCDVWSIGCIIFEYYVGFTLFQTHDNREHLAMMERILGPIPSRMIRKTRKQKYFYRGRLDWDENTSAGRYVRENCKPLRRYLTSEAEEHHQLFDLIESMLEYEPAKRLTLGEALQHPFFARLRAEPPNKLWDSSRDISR

Regarding `COc1ncnn2ccc(-c3cnc4nc(C)n(Cc5nnc([C@@H](C)F)o5)c4c3)c12` [Example 286, 1-((5-((1R)-1-fluoroethyl)-1,3,4-oxadiazol-2-yl)methyl)-6-(4-methoxypyrrolo[2,1-f][1,2,4]triazin-5-yl)-2-methyl-1H-imidazo[4,5-b]pyridine], the “Increase ratio (p21)” value in the assay with p21 protein was determined as 556.4%. For the same compound, the “Increase ratio (p53)” value in the assay on p53 protein came to 620.7%. For the same compound, the “Inhibition ratio (%) of cell growth, Doxycycline (+)” value with SK-MEL-28-Control cells (Doxycycline (+)) was 35.7%. The “Inhibition ratio (%) of cell growth, Doxycycline (−)” value in the assay on SK-MEL-28-Control cells (Doxycycline (−)) is listed as 34.4%. Besides, the “Residual ratio (MDM4)” value in the assay on MDM4 protein is listed as 43.6%. Also, the “PSI (MDM4 alternative splicing ratio)” value in assay [1] was 45.81. Besides, the “Residual ratio (phosphorylated CLK2)” value in assay [2] is on record as 71.4%.
